# Data as given in US8927498B2, “Compositions and methods useful in enhancement of memory” (The Translational Genomics Research Institute, priority 2010, dated 2015).
# Entries after “also recorded” stand apart in the source; their conditions may differ.
# Legend:
# [1] = test system: hippocampal expression of candidate genes; test: hippocampal expression of candidate genes, Illumina RatRef-12 expression BeadChip; assay type: in vivo, rat
# Text: Following sacrifice, the left hippocampus was utilized for genome-wide expression profiling. […] These included Adcyap1 with fold change (FC) of 1.5, and p=0.029, Tiam1 with FC of −1.5 and p=0.028, and Filip1 with FC of −1.75 and p=0.032 (Table 1). The RT-PCR validation of the fold change of FILIP1 and Tiam1 is shown in Table 2 and Table 3, respectively.
# [2] = test system: seventeen-month-old Fischer-344 male rats (aged rat model of cognitive decline); test: water-escape radial arm maze, spatial working memory; assay type: in vivo; details: 17-month-old Fischer-344 male rats, 1 mg/kg/day, vs vehicle (saline)
# Experimental: (§1) In one embodiment of the present disclosed invention, the transduction complex comprises a fusion peptide including a TAT protein transduction domain and residues surrounding two known serine phosphorylation targets (Ser159 and Ser163) within MARCKS (SEQ ID NO: 3). The compound was administered to seventeen-month-old rats and behavioral spatial working memory of the rats was assessed by behavior testing. […] Such assays include, without limitation, the Morris water maze and the radial arm water maze, plus maze. For example, when employing the Morris water maze, a rat is trained to swim to a submerged platform. The rat can then be treated with an agent at a particular dose for a particular duration. Following treatment, the mean escape latency (i.e., time to find platform) is measured and compared to the mean escape latency of a control. […] Following treatment, the ability of the rat to remember a newly-learned path is measured and compared to that of a control. […] In the water Plus Maze test, the variables measured include the percentage of time spent in the open and closed areas of the maze, the latency to leave the central platform, the total number of crossings between the various open and closed areas of the maze, and the number of crossings into the open areas of the maze divided by the total number of crossings. […]
# [3] = test system: seventeen-month-old Fischer-344 male rats (aged rat model of cognitive decline); test: water-escape plus maze, spatial working memory; assay type: in vivo; details: 17-month-old Fischer-344 male rats, 1 mg/kg/day, vs vehicle (saline), n=9
# Experimental: as §1
# [4] = hippocampus, treated vs. vehicle rats, Mann-Whitney
# [5] = hippocampus, treated vs. vehicle rats, T-Test
# [6] = left hippocampus, genome-wide expression profiling
substance,measurement,setting,value
SEQ ID NO: 1: fusion peptide including a TAT protein transduction domain and residues surrounding two known serine phosphorylation targets (Ser159 and Ser163) within MARCKS (YGRKKRRQRRRCKRFSFKKSFKLSGFSFKK; TAT MARCKS fusion),Fold Change Filip1,[1]; [4],−1.747
same,Fold Change Gna1,[1]; [4],−1.534
same,Fold Change Ptpro,[1]; [4],−1.708
same,Fold Change Tiam1,[1]; [4],−1.510
same,Fold Change Tp53i11_predicted,[1]; [4],−1.581
same,Fold Change Adcyap1,[1]; [5],1.554
same,Fold Change Filip1,[1]; [5],−1.747
same,Fold Change LOC501145,[1]; [5],1.566
same,Fold Change Perp_predicted,[1]; [5],−1.647
same,Fold Change Tiam1,[1]; [5],−1.499
same,Fold Change Tp53i11_predicted,[1]; [5],−1.554
same,fold change (FC) Adcyap1,[1]; [6],1.5
same,fold change (FC) Filip1,[1]; [6],−1.75
same,fold change (FC) Tiam1,[1]; [6],−1.5
same,working memory performance in water-escape radial arm maze,[2]; n=9,better able to process multiple items of information; also recorded: enhanced working memory performance
same,working memory performance in water-escape radial arm maze,"[2]; n=9, listed as MARCKS peptide decoy",better performance in the radial arm water maze
same,working memory performance in water-escape plus maze,[3],acquired the plus maze task at a faster rate; also recorded: enhanced working memory performance
